In general, IC50 refers to the midpoint of a concentration-inhibition curve. A lower IC50 goes with higher potency.

Data on three compounds can be found in patent US20060183754A1, “Amide bridged piphenyl or biazaphenyl derivatives” (priority 2005, published 2006).

Structures are written as SMILES.

One assay has as its target T1, PPARδ (Homo sapiens, UniProt Q03181).
T1 construct: PPARδ (aa 139 to 442); made in house; host or cells: E. coli BL21 (pLysS)
T1 sequence (Q03181 139-441 limits assumed): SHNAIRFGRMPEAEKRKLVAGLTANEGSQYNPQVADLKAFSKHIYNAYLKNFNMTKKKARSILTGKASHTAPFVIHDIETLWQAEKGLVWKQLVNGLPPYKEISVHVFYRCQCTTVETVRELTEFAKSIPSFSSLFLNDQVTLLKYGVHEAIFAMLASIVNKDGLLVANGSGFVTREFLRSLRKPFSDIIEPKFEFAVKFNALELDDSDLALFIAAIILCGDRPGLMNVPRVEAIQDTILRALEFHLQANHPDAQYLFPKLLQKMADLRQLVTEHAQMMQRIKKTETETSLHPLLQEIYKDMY
The experiment in a line: PPARδ radioligand binding assay (SPA, GST-PPARδ-LBD). From the text:
(§1) Background information on the performed assays can be found in: Nichols J S et al. “Development of a scintillation proximity assay for peroxisome proliferator-activated receptor gamma ligand binding domain”, (1998) Anal. Biochem. 257: 112-119.
(§2) Full-length cDNA clones for humans PPARδ and PPARα and mouse PPARγ were obtained by RT-PCR from human adipose and mouse liver cRNA, respectively, cloned into plasmid vectors and verified by DNA sequencing. Bacterial and mammalian expression vectors were constructed to produce glutathione-s-transferase (GST) and Gal4 DNA binding domain proteins fused to the ligand binding domains (LBD) of PPARδ (aa 139 to 442), PPARγ (aa 174 to 476) and PPARα (aa 167 to 469). To accomplish this, the portions of the cloned sequences encoding the LBDs were amplified from the full-length clones by PCR and then subcloned into the plasmid vectors. Final clones were verified by DNA sequence analysis.
(§3) Induction, expression, and purification of GST-LBD fusion proteins were performed in E. coli strain BL21 (pLysS) cells by standard methods (Ref: Current Protocols in Molecular Biology, Wiley Press, edited by Ausubel et al.).
PPARδ receptor binding was assayed in HNM10 (50 mM Hepes, pH 7.4, 10 mM NaCl, 5 mM MgCl2, 0.15 mg/ml fatty acid-free BSA and 15 mM DTT). For each 96 well reaction a 500 ng equivalent of GST-PPARδ-LBD fusion protein and radioligand, e.g. 20000 dpm {2-methyl-4-[4-methyl-2-(4-trifluoromethyl-phenyl)-thiazol-5-yl-ditritiomethylsulfanyl]-phenoxy}-acetic acid, was bound to 10 μg SPA beads (PharmaciaAmersham) in a final volume of 50 μl by shaking. The resulting slurry was incubated for 1 h at RT and centrifuged for 2 min at 1300 g. […] Radioligand was added and the reaction incubated at RT for 1 h and scintillation proximity counting performed in the presence of test compounds was determined. All binding assays were performed in 96 well plates and the amount of bound ligand was measured on a Packard TopCount using OptiPlates (Packard). […]

In the next assay the target is T2, PPARγ (Mus musculus, UniProt P37238).
T2 construct: PPARγ (aa 174 to 476); made in house; host or cells: E. coli BL21 (pLysS)
T2 sequence (P37238 204-505): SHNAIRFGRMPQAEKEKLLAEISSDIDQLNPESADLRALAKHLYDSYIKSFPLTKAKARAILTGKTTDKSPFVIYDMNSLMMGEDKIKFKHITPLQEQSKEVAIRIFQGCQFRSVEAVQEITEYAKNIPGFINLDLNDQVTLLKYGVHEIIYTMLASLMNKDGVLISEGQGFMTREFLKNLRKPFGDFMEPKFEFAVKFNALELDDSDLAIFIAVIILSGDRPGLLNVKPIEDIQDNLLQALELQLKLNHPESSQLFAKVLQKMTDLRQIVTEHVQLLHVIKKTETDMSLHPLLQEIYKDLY
In words: PPARγ radioligand binding assay (SPA, GST-PPARγ-LBD).
Source text: as §1, §2, §3
(§4) PPARγ receptor binding was assayed in TKE50 (50 mM Tris-HCl, pH 8, 50 mM KCl, 2 mM EDTA, 0.1 mg/ml fatty acid-free BSA and 10 mM DTT). For each 96 well reaction an 140 ng equivalent of GST-PPARγ-LBD fusion protein was bound to 10 μg SPA beads (PharmaciaAmersham) in a final volume of 50 ul by shaking. The resulting slurry was incubated for 1 h at RT and centrifuged for 2 min at 1300 g. The supernatant containing unbound protein was removed and the semidry pellet containing the receptor-coated beads was resolved in 50 ul of TKE. […] All binding assays were performed in 96 well plates and the amount of bound ligand measured on a Packard TopCount using OptiPlates (Packard). Nonspecific binding was determined in the presence of 10^−4 M unlabelled compound. […]

Another assay has as its target T3, PPARα (Homo sapiens, UniProt Q07869).
T3 construct: PPARα (aa 167 to 469); made in house; host or cells: E. coli BL21 (pLysS)
T3 sequence (Q07869 167-468 limits assumed): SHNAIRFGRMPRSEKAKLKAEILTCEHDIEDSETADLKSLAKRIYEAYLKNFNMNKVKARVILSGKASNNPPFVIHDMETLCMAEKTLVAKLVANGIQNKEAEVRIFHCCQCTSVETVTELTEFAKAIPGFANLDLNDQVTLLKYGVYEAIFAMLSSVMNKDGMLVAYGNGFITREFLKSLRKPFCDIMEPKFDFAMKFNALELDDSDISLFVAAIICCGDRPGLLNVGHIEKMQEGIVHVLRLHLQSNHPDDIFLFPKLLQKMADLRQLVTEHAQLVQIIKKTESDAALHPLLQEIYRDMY
The experiment in a line: PPARα radioligand binding assay (SPA, GST-PPARα-LBD).
Source text: as §1, §2, §3
as §4, with “PPARα receptor” for “PPARγ receptor”, “of GST-PPARα-LBD” for “of GST-PPARγ-LBD”, “50 μl” for “50 ul”

On to `CC(C)(Oc1ccc(CCCC(=O)Nc2cnc(-c3ccc(C(F)(F)F)cc3)nc2C2CC2)cc1)C(=O)O` [Example 16, 2-(4-{3-[4-Cyclopropyl-2-(4-trifluoromethyl-phenyl)-pyrimidin-5-ylcarbamoyl]-propyl}-phenoxy)-2-methyl-propionic acid], for which the 50% inhibitory concentration (IC50) was over 10000 nM at PPARδ, over 10000 nM on PPARγ and 8 nM at PPARα.
Take `Cc1cc(OCCNC(=O)c2cnc(-c3ccc(C(F)(F)F)cc3)nc2C2CC2)ccc1OC(C)(C)C(=O)O` [Example 20, 2-[4-(2-{[4-Cyclopropyl-2-(4-trifluoromethyl-phenyl)-pyrimidine-5-carbonyl]-amino}-ethoxy)-2-methyl-phenoxy]-2-methyl-propionic acid]: the IC50 was found to be 940 nM at PPARδ, 1080 nM at PPARγ and 24 nM at PPARα.
Turning to `Cc1cc(OC(C)C(=O)Nc2cccc(-c3ccc(C(F)(F)F)cc3)c2)ccc1OC(C)(C)C(=O)O` (racemic) [Example 09, [rac]-2-Methyl-2-{2-methyl-4-[1-(4′-trifluoromethyl-biphenyl-3-ylcarbamoyl)-ethoxy)-phenoxy}-propionic acid], the IC50 is 580 nM at PPARδ, over 10000 nM at PPARγ and 420 nM at PPARα.
